Here are results for 15 compounds from patent US4772618A, “Benzamides” (priority 1985, dated 1988).

Data set [1] addresses T1, central and peripheral D2 (DA2)--dopamine receptors (Rattus norvegicus, UniProt P61169).
T1 construct: Apomorphine-induced stereotyped behaviour in the rat, administering compounds via the intraperitoneal route; from tissue; host or cells: whole living rat (in vivo, intraperitoneal dosing)
Put plainly: Apomorphine-induced stereotyped behaviour in the rat, intraperitoneal route. The class given is in vivo. The protocol:
The pharmacological screening for undesirable effects upon central and peripheral D2 (DA2)--dopamine receptors was carried out using the following tests:
2. […]. (see Janssen, P. A. J., Niemegeers, C. J. E. and Jageneau, A. H. Arzneim. Forsch. 10, 1003-1005, 1960).

The target in data set [2] is T2, central and peripheral D2 (DA2)--dopamine receptors (Canis lupus familiaris, UniProt Q9GJU1).
T2 construct: Apomorphine-induced emesis in the dog, administering compounds via the intravenous route; from tissue; host or cells: whole living dog (in vivo, intravenous dosing)
The data set is described as follows: Apomorphine-induced emesis in the dog, intravenous route. Type of data set: in vivo. Here is the method: The pharmacological screening for undesirable effects upon central and peripheral D2 (DA2)--dopamine receptors was carried out using the following tests: 3. […] (see […]., High, […]., Burke, J. C. and […]. Exp. Therap., 127, 55-65, 1959).

Another data set has as its system stomach emptying. Put plainly: Stomach emptying in the rat (stomach emptying index, glass beads), oral route. Set-up: key: index computed from beads emptied by treated (nx) vs control (nc) rats. The class given is in vivo. Here is the method: Stomach emptying in the rat, administering compounds via the oral (0.1-1 mg/Kg) and intraperitoneal routes (1-10 mg/Kg), (see Jacoby, H. I. and Brodie, D. A., Gastroenterol. 52, 676-684, 1967).
A stomach emptying index was calculated as follows:
40 Glass beads (diam.perspectiveto.1 mm) administered to each rat after dosing with the test compounds at 0.1, 0.3 and 1 mg/Kg p.o. Results calculated according to the formulae: [formula] where: nc =the number of beads empited by control animals.
nx =the number of beads emptied by treated animals.
SEI=Stomach emptying index [formula]

In data set [3] the test system is dopamine receptors in the striatum and hypophysis. The note with it: cited from earlier work.
[4] abbreviates: Table 2 (with aromatic compounds), ip.
Setting [5] is: Table 2 (with aromatic compounds).
Setting [6] is: Table 1, 0.1, 0.3 and 1 mg/Kg p.o.
The mark [7] stands for this setting: Table 2 (with aromatic compounds), 0.1, 0.3 and 1 mg/Kg p.o.

Where two headings read alike, the source gives them in different places.

T1 sequence (P61169 whole entry): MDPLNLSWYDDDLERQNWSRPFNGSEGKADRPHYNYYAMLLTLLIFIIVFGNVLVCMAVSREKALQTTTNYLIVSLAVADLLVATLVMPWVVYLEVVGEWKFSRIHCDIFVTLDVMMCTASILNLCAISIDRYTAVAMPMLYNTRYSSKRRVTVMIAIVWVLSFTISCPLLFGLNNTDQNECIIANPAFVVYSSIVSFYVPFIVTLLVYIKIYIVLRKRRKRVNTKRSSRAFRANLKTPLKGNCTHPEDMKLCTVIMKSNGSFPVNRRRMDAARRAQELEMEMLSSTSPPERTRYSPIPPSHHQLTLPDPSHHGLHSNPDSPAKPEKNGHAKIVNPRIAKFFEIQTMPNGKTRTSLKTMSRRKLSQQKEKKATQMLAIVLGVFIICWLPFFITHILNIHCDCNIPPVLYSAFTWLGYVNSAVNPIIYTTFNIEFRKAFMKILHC
T2 sequence (Q9GJU1 whole entry): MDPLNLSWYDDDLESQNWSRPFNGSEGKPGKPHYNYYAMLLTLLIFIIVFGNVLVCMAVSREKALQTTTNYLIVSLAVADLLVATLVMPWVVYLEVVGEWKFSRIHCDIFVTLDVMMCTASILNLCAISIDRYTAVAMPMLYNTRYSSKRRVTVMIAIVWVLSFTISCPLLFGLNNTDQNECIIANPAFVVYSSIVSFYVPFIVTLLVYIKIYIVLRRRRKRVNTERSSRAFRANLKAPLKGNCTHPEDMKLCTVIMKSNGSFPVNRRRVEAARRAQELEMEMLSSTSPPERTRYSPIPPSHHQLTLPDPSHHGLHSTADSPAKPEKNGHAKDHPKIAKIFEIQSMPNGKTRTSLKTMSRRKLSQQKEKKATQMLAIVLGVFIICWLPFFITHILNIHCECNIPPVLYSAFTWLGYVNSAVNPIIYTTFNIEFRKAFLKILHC

Consider `COc1cc(N)c(Cl)cc1C(=O)NC1CCN(Cc2ccccc2)CC1` [CLEBOPRIDE, N(1benzylpiperid-4-yl)-2-methoxy-4-amino-5-chlorobenzamide, reference compound], for which the “Antidopaminergic activity: rat stereotype behaviour induced by apomorphine, ID50” value (from here on “Antidopaminergic activity … by apomorphine, ID50”) is 0.3 mg/kg in data set [1] (Table 1, ip) and 0.3 mg/kg in data set [1] (setting [4]). For the same compound, the “Antidopaminergic activity: dog emesis screen, ID50” value in data set [2] (Table 1) and in data set [2] (setting [5]) was 0.0096 mg/kg in each case. The “Stomach emptying index in the rat via oral route” value (“Stomach emptying index” for short) in the data set on stomach emptying (setting [6]) and in the data set on stomach emptying (setting [7]) was 50.0 each time. The “side effects associated with dopamine receptor blockade in some patients” value in data set [3] (in words, some patients) was “extrapyramidal symptoms and hyperprolactinemia related side effects in some patients”.

For the compound `CCCOc1cc(N)c(Cl)cc1C(=O)NC1CCN(CCCC2CCCO2)CC1` (centres unmarked) [COMPOUND 39], the “Antidopaminergic activity … by apomorphine, ID50” value in data set [1] (Table 1, ip) is more than 30.0 mg/kg. In data set [2] (Table 1), the “Antidopaminergic activity: dog emesis screen, ID50” value is more than 1 mg/kg. In addition, the “Stomach emptying index” value with stomach emptying (setting [6]) came to 45.8.

Regarding `CCCCOc1cc(N)c(Cl)cc1C(=O)NC1CCN(CC2CCCCO2)CC1` (centres unmarked) [COMPOUND 57], in data set [1] (Table 1, ip), the “Antidopaminergic activity … by apomorphine, ID50” value is reported as more than 30.0 mg/kg. In data set [2] (Table 1), the “Antidopaminergic activity: dog emesis screen, ID50” value was more than 1 mg/kg. In addition, the “Stomach emptying index” value in the data set on stomach emptying (setting [6]) turned out to be 51.0.

Take `CCCCOc1cc(N)c(Cl)cc1C(=O)NC1CCN(CC2OCCO2)CC1` [COMPOUND 66, N-[1-[2-(1,3-dioxolanyl)methyl]piperid-4-yl]-2-butoxy-4-amino-5-chlorobenzamide]: in data set [1] (Table 1, ip), the “Antidopaminergic activity … by apomorphine, ID50” value was more than 30.0 mg/kg. Besides, the “Antidopaminergic activity: dog emesis screen, ID50” value in data set [2] (Table 1) was more than 1 mg/kg. Besides, the “Stomach emptying index” value with stomach emptying (setting [6]) is listed as 53.7.

In the case of `CCCCOc1cc(N)c(Cl)cc1C(=O)NC1CCN(CC2OC(C)(C)C(C)(C)O2)CC1` [COMPOUND 91], the “Antidopaminergic activity … by apomorphine, ID50” value in data set [1] (Table 1, ip) is recorded as more than 30.0 mg/kg. Further, the “Antidopaminergic activity: dog emesis screen, ID50” value in data set [2] (Table 1) was more than 1 mg/kg. Also, the “Stomach emptying index” value in the data set on stomach emptying (setting [6]) came to 54.9.

`CCCCOc1cc(N)c(Cl)cc1C(=O)NC1CCN(CC2OC3CCCCC3O2)CC1` (centres unmarked) [COMPOUND 95]: the “Antidopaminergic activity … by apomorphine, ID50” value in data set [1] (Table 1, ip) is listed as more than 30.0 mg/kg. Moreover, the “Antidopaminergic activity: dog emesis screen, ID50” value in data set [2] (Table 1) was more than 1 mg/kg. In addition, the “Stomach emptying index” value in the data set on stomach emptying (setting [6]) is 49.0.

In the case of `COc1cc(N)c(Cl)cc1C(=O)NC1CCN(CC2COCO2)CC1` (centres unmarked) [COMPOUND 98], in data set [1] (Table 1, ip), the “Antidopaminergic activity … by apomorphine, ID50” value is on record as more than 30.0 mg/kg. In addition, in data set [2] (Table 1), the “Antidopaminergic activity: dog emesis screen, ID50” value is more than 1 mg/kg. The “Stomach emptying index” value with stomach emptying (setting [6]) stood at 60.1.

For the compound `CCCOc1cc(N)c(Cl)cc1C(=O)NC1CCN(CC2OCCCO2)CC1` [COMPOUND 108], in data set [1] (Table 1, ip), the “Antidopaminergic activity … by apomorphine, ID50” value was more than 30.0 mg/kg. Further, in data set [2] (Table 1), the “Antidopaminergic activity: dog emesis screen, ID50” value is more than 1 mg/kg. Further, the “Stomach emptying index” value in the data set with stomach emptying (setting [6]) was 51.0.

With `CCCCOc1cc(N)c(Cl)cc1C(=O)NC1CCN(CC2OCCCO2)CC1` [COMPOUND 109], the “Antidopaminergic activity … by apomorphine, ID50” value in data set [1] (Table 1, ip) was more than 30.0 mg/kg. Further, the “Antidopaminergic activity: dog emesis screen, ID50” value in data set [2] (Table 1) is more than 1 mg/kg. The “Stomach emptying index” value in the data set on stomach emptying (setting [6]) amounted to 61.3.

In the case of `CCCCOc1cc(N)c(Cl)cc1C(=O)NC1CCN(CC2OCCCCO2)CC1` [COMPOUND 116], the “Antidopaminergic activity … by apomorphine, ID50” value in data set [1] (Table 1, ip) is more than 30.0 mg/kg. The “Antidopaminergic activity: dog emesis screen, ID50” value in data set [2] (Table 1) was more than 1 mg/kg. The “Stomach emptying index” value in the data set on stomach emptying (setting [6]) was found to be 56.2.

In the case of `COc1cc(N)c(Cl)cc1C(=O)NC1CCN(Cc2cccs2)CC1` [COMPOUND A, reference compound], the “Antidopaminergic activity … by apomorphine, ID50” value in data set [1] (setting [4]) fell in the range of 3 to 10 mg/kg. For the same compound, the “Antidopaminergic activity: dog emesis screen, ID50” value in data set [2] (setting [5]) lay within 0.01 to 0.03 mg/kg. For the same compound, in the data set with stomach emptying (setting [7]), the “Stomach emptying index” value was found to be 40.3.

Regarding `COc1cc(N)c([N+](=O)[O-])cc1C(=O)NC1CCN(Cc2cccs2)CC1` [COMPOUND B, reference compound], the “Antidopaminergic activity … by apomorphine, ID50” value in data set [1] (setting [4]) was 10 to 30 mg/kg. For the same compound, the “Antidopaminergic activity: dog emesis screen, ID50” value in data set [2] (setting [5]) lay within 0.03 to 0.1 mg/kg. Also, the “Stomach emptying index” value in the data set on stomach emptying (setting [7]) is 17.7.

For the compound `COc1cc(N)c(Cl)cc1C(=O)NC1CCN(Cc2ccccn2)CC1` [COMPOUND C, reference compound], the “Antidopaminergic activity … by apomorphine, ID50” value in data set [1] (setting [4]) is 10 to 30 mg/kg. For the same compound, the “Antidopaminergic activity: dog emesis screen, ID50” value in data set [2] (setting [5]) is 0.03 to 0.1 mg/kg. Besides, the “Stomach emptying index” value in the data set with stomach emptying (setting [7]) is reported as 25.0.

In the case of `COc1cc(N)c(Cl)cc1C(=O)NC1CCN(Cc2ccco2)CC1` [COMPOUND D, reference compound], the “Antidopaminergic activity … by apomorphine, ID50” value in data set [1] (setting [4]) lay within 3 to 10 mg/kg. In addition, the “Antidopaminergic activity: dog emesis screen, ID50” value in data set [2] (setting [5]) was 0.01 to 0.03 mg/kg. Further, the “Stomach emptying index” value in the data set on stomach emptying (setting [7]) stood at 19.3.

As to `CCN(CC)CCNC(=O)c1cc(Cl)c(N)cc1OC` [METOCLOPRAMIDE, reference compound], the “Antidopaminergic activity … by apomorphine, ID50” value was determined as 5.4 mg/kg in data set [1] (Table 1, ip) and 5.4 mg/kg in data set [1] (setting [4]). Also, the “Antidopaminergic activity: dog emesis screen, ID50” value in data set [2] (Table 1) and in data set [2] (setting [5]) was 0.0767 mg/kg throughout. Also, the “Stomach emptying index” value with stomach emptying (setting [6]) and in the data set with stomach emptying (setting [7]) was 24.7 each time. Further, the “side effects associated with dopamine receptor blockade in some patients” value in data set [3] (human, in vivo) was “extrapyramidal symptoms and hyperprolactinemia related side effects in some patients”.
